Patent publication US4315027A, “Pesticidal symmetrical and asymmetrical sulfinyldicarbamates containing a heterocyclic group” (priority 1980, dated 1982)

System: mosquito larvae, Culex pipiens
Assay: Larvicidal activity against mosquito larvae in water
Format: in vivo
Details: 1 ml acetone solution in 100 ml water, 3rd instar larvae
Description: Representative compounds of the N,N'-sulfinyldicarbamate esters of the invention were tested for insecticidal activity against two insect species, house flies, Musca domestica, and mosquito larvae, Culex pipiens. Stock 1% concentrated solutions of each of the test compounds were made in acetone, and such solutions diluted with acetone to a concentration of 0.001-0.1%. House flies were treated topically on the notum by 1 μl of each of the diluted acetone solutions and percent mortality was counted 24 hours after application. Insects were held at a constant temperature of 60° F. Larvicidal activity was determined by applying 1 ml of the acetone solution in 100 ml of water containing 20 3rd instar mosquito larvae. Results are presented as LD50 in μg/g for house flies and LC50 in ppm for mosquito larvae.

In order of rising “Culex LC50” value:
1. CCCCCCCOC(=O)N(C)[S+]([O-])N(C)C(=O)Oc1cccc2c1OC(C)(C)C2 (stereo not drawn) [X, 2,3-dihydro-2,2-dimethylbenzofuranyl-7 N-[N'-(n-heptoxycarbonyl)-N'-(methylaminosulfinyl)]-N-methylcarbamate]  0.015 ppm
2. CCOC(=O)N(C)[S+]([O-])N(C)C(=O)Oc1cccc2c1OC(C)(C)C2 (stereo not drawn) [VIII, 2,3-dihydro-2,2-dimethylbenzofuranyl-7 N-[N'-(ethoxycarbonyl)-N'-(methylaminosulfinyl)]-N-methylcarbamate]  0.04 ppm
3. CCCOC(=O)N(C)[S+]([O-])N(C)C(=O)Oc1ccccc1OC(C)C (stereo not drawn) [XI, 2-isopropoxyphenyl N-[N'-(n-propoxycarbonyl)-N'-(methylaminosulfinyl)]-N-methylcarbamate]  0.18 ppm
